Each structure is given as a SMILES string.

The data set relates to Caco-2 cells. Nature of the data set: Caco-2 cell uptake assay of valsartan with Mrp2/P-gp inhibitors and irradiation. Particulars: valsartan 10 μM, 5 Gy X-ray 24 h before.

As to `CCCCC(=O)N(Cc1ccc(-c2ccccc2-c2nnn[nH]2)cc1)[C@H](C(=O)O)C(C)C` [valsartan, Valsartan], the “valsartan uptake in Caco-2 cells, IR group compared with control group” value (1 h, p < 0.05) was “significant reduction” and the “valsartan uptake in Caco-2 cells, IR group compared with control group” value (2 h) is recorded as “no significant difference”.

The values above are taken from article PMC11860126, “X-Ray Irradiation Induces Oxidative Stress and Upregulates Intestinal Nrf2-Mrp2 Pathway, Leading to Decreased Intestinal Absorption of Valsartan” (Pharmaceutics, 2025).
